Results reported in patent US4260682A, “High sensitivity assays for angiotensin converting enzyme” (priority 1979, dated 1981).
Square brackets hold non-standard residues; d marks the D form. Ends that are not written are not given here. Peptide text beside a SMILES is read from it. pGlu = O=C1CC[C@@H](C(=O)O)N1

Key:
ACE [1] = molecular target: T1, ACE (Oryctolagus cuniculus, UniProt P12822); details: cited from earlier work
T1 sequence (P12822 34-1310): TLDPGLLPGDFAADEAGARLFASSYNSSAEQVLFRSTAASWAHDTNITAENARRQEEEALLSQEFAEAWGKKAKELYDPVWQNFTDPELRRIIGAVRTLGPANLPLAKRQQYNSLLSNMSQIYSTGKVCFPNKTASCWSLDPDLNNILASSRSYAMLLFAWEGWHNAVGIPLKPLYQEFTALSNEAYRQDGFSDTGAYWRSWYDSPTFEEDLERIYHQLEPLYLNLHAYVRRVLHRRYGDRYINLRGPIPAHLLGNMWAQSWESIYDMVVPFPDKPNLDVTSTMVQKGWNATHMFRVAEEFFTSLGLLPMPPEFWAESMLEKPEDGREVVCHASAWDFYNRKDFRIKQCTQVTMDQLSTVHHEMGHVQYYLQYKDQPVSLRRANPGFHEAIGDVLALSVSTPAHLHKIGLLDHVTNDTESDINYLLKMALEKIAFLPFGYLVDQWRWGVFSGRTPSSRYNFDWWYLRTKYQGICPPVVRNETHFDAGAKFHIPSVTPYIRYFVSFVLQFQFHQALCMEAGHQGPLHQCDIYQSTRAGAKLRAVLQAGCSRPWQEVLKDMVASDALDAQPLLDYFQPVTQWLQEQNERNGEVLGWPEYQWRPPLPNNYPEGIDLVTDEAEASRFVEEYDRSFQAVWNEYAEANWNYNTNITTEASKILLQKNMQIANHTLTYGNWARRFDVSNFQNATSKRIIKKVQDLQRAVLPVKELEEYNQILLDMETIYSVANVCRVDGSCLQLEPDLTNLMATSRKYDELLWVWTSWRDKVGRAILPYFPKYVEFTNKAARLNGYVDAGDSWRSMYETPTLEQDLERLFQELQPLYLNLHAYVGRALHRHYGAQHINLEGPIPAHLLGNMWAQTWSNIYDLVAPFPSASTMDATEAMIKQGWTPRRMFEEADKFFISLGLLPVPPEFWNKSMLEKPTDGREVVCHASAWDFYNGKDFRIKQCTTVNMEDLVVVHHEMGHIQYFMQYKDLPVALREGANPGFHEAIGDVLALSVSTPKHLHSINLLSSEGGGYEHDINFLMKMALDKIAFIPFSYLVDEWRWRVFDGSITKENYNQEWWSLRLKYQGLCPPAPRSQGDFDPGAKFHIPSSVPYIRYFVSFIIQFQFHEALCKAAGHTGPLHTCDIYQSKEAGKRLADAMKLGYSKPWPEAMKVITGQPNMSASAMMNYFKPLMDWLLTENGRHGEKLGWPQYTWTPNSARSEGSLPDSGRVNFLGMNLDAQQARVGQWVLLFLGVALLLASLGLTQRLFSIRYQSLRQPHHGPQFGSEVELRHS

ACE [2] = details: cited from earlier work
ACE [3] = molecular target: ACE (Homo sapiens, UniProt P12821); assay: Comparison of sensitivity of ACE radioassays; assay type: biochemical
Chain of ACE (Homo sapiens, UniProt P12821) (P12821 30-1306, species assumed): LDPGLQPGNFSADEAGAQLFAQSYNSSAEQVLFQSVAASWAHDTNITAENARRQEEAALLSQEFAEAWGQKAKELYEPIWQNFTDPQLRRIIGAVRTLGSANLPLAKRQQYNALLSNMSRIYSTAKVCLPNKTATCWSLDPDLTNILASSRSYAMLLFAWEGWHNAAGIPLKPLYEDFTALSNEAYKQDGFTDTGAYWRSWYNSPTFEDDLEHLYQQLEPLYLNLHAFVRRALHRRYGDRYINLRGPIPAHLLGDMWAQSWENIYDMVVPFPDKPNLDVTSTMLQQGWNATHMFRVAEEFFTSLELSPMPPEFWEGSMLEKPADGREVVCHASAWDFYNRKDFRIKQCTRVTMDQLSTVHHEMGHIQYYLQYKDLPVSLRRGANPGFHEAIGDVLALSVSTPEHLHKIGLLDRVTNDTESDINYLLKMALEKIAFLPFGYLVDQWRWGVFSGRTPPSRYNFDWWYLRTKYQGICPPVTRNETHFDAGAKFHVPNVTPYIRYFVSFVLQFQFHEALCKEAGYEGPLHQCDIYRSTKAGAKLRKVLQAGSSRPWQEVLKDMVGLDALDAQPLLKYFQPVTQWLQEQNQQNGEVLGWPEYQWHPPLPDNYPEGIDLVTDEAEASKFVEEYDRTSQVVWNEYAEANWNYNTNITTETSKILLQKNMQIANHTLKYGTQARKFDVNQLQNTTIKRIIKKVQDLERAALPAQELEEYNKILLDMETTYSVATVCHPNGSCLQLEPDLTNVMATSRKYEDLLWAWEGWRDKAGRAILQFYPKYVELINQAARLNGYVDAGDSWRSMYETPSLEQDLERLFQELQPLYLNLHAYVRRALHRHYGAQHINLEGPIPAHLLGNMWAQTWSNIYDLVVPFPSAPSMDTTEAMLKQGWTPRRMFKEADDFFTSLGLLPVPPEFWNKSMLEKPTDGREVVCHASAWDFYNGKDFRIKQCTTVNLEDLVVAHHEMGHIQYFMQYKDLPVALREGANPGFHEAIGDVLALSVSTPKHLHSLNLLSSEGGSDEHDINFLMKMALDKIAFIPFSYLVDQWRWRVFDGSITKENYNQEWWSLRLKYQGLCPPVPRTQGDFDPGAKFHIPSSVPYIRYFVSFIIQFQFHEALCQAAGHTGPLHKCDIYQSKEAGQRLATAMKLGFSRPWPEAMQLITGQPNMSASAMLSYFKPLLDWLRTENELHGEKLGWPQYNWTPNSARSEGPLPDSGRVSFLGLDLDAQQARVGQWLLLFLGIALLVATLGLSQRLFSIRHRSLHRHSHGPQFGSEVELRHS
Excerpt: A comparison of the sensitivity of the disclosed assay methods with each other and with prior art assays may be made by considering assays which depend upon measuring the radioactivity of the remnant reaction product. A prior art assay of this type, using ^3 H-HipGlyGly as substrate has been described (Ryan and Chung, supra). Of the two assays disclosed herein, the sulfate stimulated hydrolysis of ^3 H-HipHisLeu is approximately 20 times more sensitive, and the ^3 H-benzoylPheAlaPro assay is about 10 times more sensitive still. The latter is therefore approximately 200 times more sensitive than the assay using ^3 H-HipGlyGly.

[4] = Extraction from the acidified reaction mixture into organic solvent; assay type: physicochemical
Experimental: (§1) An even more sensitive assay for ACE activity has been developed using the novel compound ^3 H-benzoylPheAlaPro as substrate. This new substrate can be used to assay ACE in human urine in incubations as short as 15 minutes. The response of this substrate to ions is strikingly different from the response of HipHisLeu. […] This difficulty has been solved by the proper choice of extracting solvent. While a variety of organic solvents may be suitable for the extraction step, it is preferred to employ toluene. Approximately 88% of ^3 H-benzoylPhe enters the toluene phase while only 6% of the unhydrolyzed substrate enters the toluene phase, when toluene and the acidified reaction mixture are in approximately equal volumes at room temperatures.

Guinea pig serum ACE = molecular target: T2, Guinea pig serum ACE (Cavia porcellus, UniProt H0UWL7); assay: Kinetics of benzoyl-Phe-Ala-Pro hydrolysis; details: read-out: apparent Km; 0.05 M Hepes, pH 8.0, 0.15 M NaCl; Lineweaver and Burke plot
T2 sequence (H0UWL7 33-1234): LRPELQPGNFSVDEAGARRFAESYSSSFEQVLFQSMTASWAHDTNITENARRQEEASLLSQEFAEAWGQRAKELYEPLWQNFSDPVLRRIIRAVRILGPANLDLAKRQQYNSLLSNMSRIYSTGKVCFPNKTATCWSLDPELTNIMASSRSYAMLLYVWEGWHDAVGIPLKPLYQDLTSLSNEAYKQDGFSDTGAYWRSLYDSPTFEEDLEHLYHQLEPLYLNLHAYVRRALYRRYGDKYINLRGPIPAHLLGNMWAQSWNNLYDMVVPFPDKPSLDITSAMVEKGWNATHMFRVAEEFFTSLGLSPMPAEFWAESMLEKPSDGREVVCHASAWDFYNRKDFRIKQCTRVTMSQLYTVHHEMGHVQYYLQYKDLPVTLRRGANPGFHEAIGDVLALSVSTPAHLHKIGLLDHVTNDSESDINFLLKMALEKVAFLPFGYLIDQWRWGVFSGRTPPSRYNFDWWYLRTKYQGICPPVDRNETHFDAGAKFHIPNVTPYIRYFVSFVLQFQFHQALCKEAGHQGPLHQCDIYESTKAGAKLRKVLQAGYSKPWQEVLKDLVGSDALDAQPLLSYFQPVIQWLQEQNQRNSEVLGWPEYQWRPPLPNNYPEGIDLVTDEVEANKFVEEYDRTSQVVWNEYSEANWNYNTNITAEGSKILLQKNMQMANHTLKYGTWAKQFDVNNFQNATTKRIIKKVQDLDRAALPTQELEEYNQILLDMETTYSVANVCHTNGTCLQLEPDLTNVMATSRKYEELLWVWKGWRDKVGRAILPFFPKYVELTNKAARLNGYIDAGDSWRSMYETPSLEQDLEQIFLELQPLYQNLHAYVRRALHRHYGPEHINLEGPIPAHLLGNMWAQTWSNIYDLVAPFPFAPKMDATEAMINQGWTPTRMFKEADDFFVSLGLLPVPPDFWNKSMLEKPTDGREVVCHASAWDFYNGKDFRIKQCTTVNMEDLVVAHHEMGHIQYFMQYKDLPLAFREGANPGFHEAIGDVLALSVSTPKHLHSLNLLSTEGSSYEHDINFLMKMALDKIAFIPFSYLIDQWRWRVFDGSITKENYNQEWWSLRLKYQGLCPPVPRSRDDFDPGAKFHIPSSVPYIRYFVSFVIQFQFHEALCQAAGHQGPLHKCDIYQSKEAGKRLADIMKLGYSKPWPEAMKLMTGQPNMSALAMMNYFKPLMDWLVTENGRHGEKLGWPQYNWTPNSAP
Experimental: Kinetics of Benzoyl-Phe-Ala-Pro Hydrolysis
The apparent Km for the ACE catalyzed hydrolysis of benzoyl-Phe-Ala-Pro was measured in the following manner. […] Guinea pig serum was diluted 1:1000 to provide the enzyme. A mixture of 50 μl diluted serum and 50 μl of substrate, diluted in the reaction buffer to provide the appropriate substrate concentration for each experiment, was incubated at 37° C. for 10 minutes. At the end of the incubation, 1.0 ml of 0.1 M HCl was added to stop the reaction. The reaction mixture was then extracted with 1.0 ml toluene, and a 0.5 ml aliquot of the toluene phase was counted in a scintillation counter.

ACE [5] = assay: Sulfate and chloride effects on ACE catalysed hydrolysis (general description); assay type: biochemical; details: 0.05 M Hepes, pH 8.0
Excerpt: An assay for ACE, using HipHisLeu as substrate, is herewith described. The assay is more sensitive than any heretofore disclosed using HipHisLeu as substrate. Maximum sensitivity is achieved by the inclusion of sulfate ions, preferably as sodium sulfate, in the reaction mixture. When 0.1 M NaCl is present in the reaction mixture, sulfate ions are stimulatory from 0.1 M to at least 1.1 M. Maximum stimulation occurs in the range from 0.75 M to 1.1 M Na2 SO4.
as §1
The enzyme is active over a broad pH range with a maximum around pH 8.0, but is at least about 50% active in the range pH 7.0-pH 8.8, for both HipHisLeu and benzoylPheAlaPro. Although the enzyme is active in a variety of buffer systems known in the art, it is preferred for convenience, when using benzoylPheAlaPro as substrate, to conduct the assays in 0.05 M Hepes buffer, pH 8.0 containing 0.15 M sodium chloride. Detailed protocols for carrying out the assay are given in the examples. […] The preferred concentration range is 1×10^-9 M to 7×10^- 5 M.

Compound	substrate for the enzyme (ACE [1])	cleavage in the presence of chloride (ACE [1]; vs. buffer of undisclosed composition)	competitive substrate of ACE (ACE [2])	sensitivity relative to the sulfate-stimulated HipHisLeu assay (ACE [3])	sensitivity relative to the assay using ^3 H-HipGlyGly (ACE [3]; radioactivity of remnant product, HipHisLeu assay sulfate stimulated)	extraction into ethyl acetate ([4]; acidified with dilute hydrochloric acid)	fraction entering the toluene phase ([4]; toluene and acidified reaction mixture in approximately equal volumes, room temperature)	Km (Guinea pig serum ACE)	hydrolysis in the absence of any added salt (ACE [5])
<GluLysTrpAlaPro ([pGlu]KWAP) [BPP5a]	could serve as a substrate for the enzyme	proceeded more slowly in the presence of chloride	competitive substrates						
NC(N)=NCCC[C@H](NC(=O)[C@H](Cc1ccccc1)NC(=O)[C@@H]1CCCN1C(=O)[C@H](CO)NC(=O)[C@H](Cc1ccccc1)NC(=O)CNC(=O)[C@@H]1CCCN1C(=O)[C@@H]1CCCN1C(=O)[C@@H](N)CCCN=C(N)N)C(=O)O [bradykinin, ArgProProGlyPheSerProPheArg] (H-RPPGFSPFR-OH)			competitive substrates						
^3 H-benzoylPheAlaPro				about 10 times	approximately 200 times	extracted almost quantitatively into ethyl acetate	6%	14 µM	ACE will hydrolyze
